Data reported in patent US8296071B2, “Methods for uniformly treating biological samples with electromagnetic radiation” (Terumo BCT Biotechnologies, LLC, priority 2004, dated 2012).

Columns and labels:
[1] = tested on: porcine parvovirus virus (PPV); assay: Pathogen reduction of PPV in platelet and plasma-containing samples at two agitation rates; conditions: net radiant energy by Equation V
Procedure: Platelet and plasma-containing fluid samples having volumes selected over the range of about 200 ml to about 400 ml were illuminated in 1 liter fixed volume, partially transparent containers.
Electromagnetic radiation was provided by two banks of six mercury vapor fluorescent lamps (model number XG25T8E; distributed by Ushio Nichia NP-803 phosphor) positioned above and below the fluid containers. This optical geometry defines two photoreactive layers having thicknesses equal to approximately 1 millimeter corresponding to the top and bottom illuminated surfaces of the fluid. […]
Bovine viral diarrhea virus (BVDV), porcine parvovirus virus (PPV), hepatitis A virus (HAV) and S. aureus bacteria were assayed before and after illumination using TCID50 or plating methods to provide quantitative measurements of the extent of pathogen reduction achieved.
The effect of agitation rate on the extent of pathogen reduction achieved upon treatment of fluids with electromagnetic radiation was also studied by varying the agitation rate provided to the sample container during illumination. Platelet and plasma-containing samples were exposed to net radiant energies calculated using Equation V. Samples were mixed during illumination using two different agitation rates: 120 cycles per minute and 20 cycles per minute.

[2] = tested on: Bovine viral diarrhea virus (BVDV); assay: Pathogen reduction of BVDV in platelet and plasma-containing fluids (photosensitizer + electromagnetic radiation), TCID50; assay type: cell-based; conditions: fixed net radiant energy 3 Joules cm^−2
Source text: FIG. 4A provides a bar graph showing the average reduction of BVDV pathogen for fluid samples having two different volumes held in containers having nontransmissive labels and exposed to a fixed net radiant energy. […] FIG. 4B provides a bar graph showing the average reduction of BVDV pathogen for fluid samples having two different volumes held in containers not having nontransmissive labels and exposed to a fixed net radiant energy equal to 3 Joules cm^−2. […] The error bars shown in FIGS. 4A and 4B correspond to standard deviations (1σ) corresponding to six independent measurements at each volume.

In the case of 7,8-dimethyl-10-ribityl isoalloxazine, the “log decrease in the biological activity of PPV pathogens” value ([1]; agitation rate 20 cycles per minute) is reported as 0.72 log, the “log decrease in the biological activity of PPV pathogens” value ([1]; agitation rate 120 cycles per minute) is reported as 4.65 log and the “average reduction of BVDV pathogen” value ([2]; about 230 ml sample, containers with nontransmissive labels) is reported as “about 2.0 log”. For the same substance, the “average reduction of BVDV pathogen” value ([2]; about 230 ml sample, containers without nontransmissive labels) was “about 2.3 log”, the “average reduction of BVDV pathogen” value ([2]; about 280 ml sample, containers with nontransmissive labels) was “about 1.4 log” and the “average reduction of BVDV pathogen” value ([2]; about 280 ml sample, containers without nontransmissive labels) was “about 1.9 log”.
